Assay results published in the supplement of paper PMC10307832.

Experiments:
Test in all cases: relative viability (nuclei count vs DMSO), 5 days (fraction); higher = more cells survive
[1] = compound: C=CC(=O)Nc1cc(-n2c(=O)ccc3cnc4ccc(-c5ccc(NS(C)(=O)=O)cc5)cc4c32)ccc1C [BMX-IN-1] + CC1(C)CCC(c2ccc(Cl)cc2)=C(CN2CCN(c3ccc(C(=O)NS(=O)(=O)c4ccc(N[C@H](CCN5CCOCC5)CSc5ccccc5)c(S(=O)(=O)C(F)(F)F)c4)cc3)CC2)C1 [Navitoclax] (partner 0.5 µM)
Method in brief: (§1)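 Five library-drug doses in √10 steps were combined with a fixed anchor-drug dose, or a single drug was given alone, by pin tool to lung cancer cell lines in 1536-well plates the day after seeding. Nuclei were stained and counted after 5 days. Relative viability is the nuclei count in treated wells over that in vehicle wells, taken as the median of duplicate plates.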

[2] = compound: C=CC(=O)N1CCC[C@@H](n2nc(-c3ccc(Oc4ccccc4)cc3)c3c(N)ncnc32)C1 [Ibrutinib] + C[C@]1(O)C[C@@H](c2nc(-c3ccc4ccc(-c5ccccc5)nc4c3)c3c(N)nccn32)C1 [Linsitinib] (partner 1 µM)
Method in brief: as §1

[3] = compound: C=CC(=O)Nc1cc(-n2c(=O)ccc3cnc4ccc(-c5ccc(NS(C)(=O)=O)cc5)cc4c32)ccc1C [BMX-IN-1] + C[C@@H](Oc1cc(-c2cnn(C3CCNCC3)c2)cnc1N)c1c(Cl)ccc(F)c1Cl [Crizotinib] (partner 1 µM)
Method in brief: as §1

[4] = compound: C=CC(=O)N1CCC[C@@H](n2nc(-c3ccc(Oc4ccccc4)cc3)c3c(N)ncnc32)C1 [Ibrutinib] + CC(=O)c1c(C)c2cnc(Nc3ccc(N4CCNCC4)cn3)nc2n(C2CCCC2)c1=O [Palbociclib] (partner 0.5 µM)
Method in brief: as §1

Row | Cell Line | relative viability ([1]; first compound 0.02 µM) | relative viability ([1]; first compound 0.2 µM) | relative viability ([1]; first compound 0.6325 µM) | relative viability ([1]; first compound 2 µM) | relative viability ([2]; first compound 0.005 µM) | relative viability ([2]; first compound 0.01581 µM) | relative viability ([2]; first compound 0.05 µM) | relative viability ([2]; first compound 0.1581 µM) | relative viability ([2]; first compound 0.5 µM) | relative viability ([3]; first compound 0.02 µM) | relative viability ([3]; first compound 0.2 µM) | relative viability ([3]; first compound 0.6325 µM) | relative viability ([3]; first compound 2 µM) | relative viability ([4]; first compound 0.005 µM) | relative viability ([4]; first compound 0.01581 µM) | relative viability ([4]; first compound 0.05 µM) | relative viability ([4]; first compound 0.1581 µM) | relative viability ([4]; first compound 0.5 µM)
1 | HOP-62 | 1.42 | 1.17 | 1.21 | 1.12 | 0.761 | 0.771 | 0.979 | 1.17 | 1.07 | 0.76 | 1.04 | 0.98 | 0.959 | 0.542 | 0.442 | 0.42 | 0.459 | 0.516
2 | LC-2-ad | 0.55 | 0.504 | 0.776 | 0.513 | 0.829 | 0.778 | 0.89 | 0.869 | 0.745 | 0.374 | 0.518 | 0.484 | 0.494 | 0.588 | 0.513 | 0.505 | 0.542 | 0.505
3 | LCLC-97TM1 | 0.349 | 0.429 | 0.322 | 0.46 | 0.179 |  | 0.175 | 0.2 | 0.169 | 0.343 | 0.429 | 0.363 | 0.387 | 0.222 | 0.226 | 0.284 | 0.241 | 0.161
4 | LK-2 | 1.09 | 1.04 | 1.02 | 0.923 | 0.422 | 0.7 | 0.552 | 0.377 | 0.528 | 0.232 | 0.207 | 0.252 | 0.191 | 0.469 | 0.662 | 0.586 | 0.542 | 0.579
5 | LOU-NH91 |  | 0.695 | 0.773 | 0.683 | 0.834 | 0.733 | 0.739 | 0.892 | 0.492 |  | 0.764 | 0.752 | 0.731 | 0.563 | 0.499 | 0.567 | 0.56 | 0.513
6 | LU99A | 0.897 | 0.885 | 0.857 | 0.833 | 0.504 | 0.51 | 0.497 | 0.54 | 0.521 | 0.639 | 0.567 | 0.547 | 0.579 | 0.339 | 0.391 | 0.41 | 0.443 | 0.391
7 | LXF-289 | 0.954 | 1.06 | 1.03 | 1.01 | 0.988 | 0.96 | 0.923 | 0.955 | 0.927 | 0.876 | 0.907 | 0.842 | 0.815 | 0.607 | 0.598 | 0.582 | 0.556 | 0.606
8 | NCI-H23 | 0.979 | 0.85 | 0.858 | 0.738 | 0.396 | 0.508 | 0.545 | 0.568 | 0.518 | 0.501 | 0.538 | 0.419 | 0.5 | 0.484 | 0.465 | 0.456 | 0.53 | 0.506
9 | NCI-H322M | 0.848 | 1.18 | 1.24 | 1.16 | 0.782 | 0.813 | 0.784 | 0.82 | 0.516 | 1.02 | 1.05 | 0.982 | 0.887 | 0.472 | 0.463 | 0.479 | 0.469 | 0.399
10 | NCI-H441 | 0.466 | 0.85 | 1.08 | 0.755 | 0.64 | 0.615 | 0.585 | 0.518 | 0.495 | 0.861 | 0.936 | 0.884 | 0.787 | 0.2 | 0.199 | 0.216 | 0.138 | 0.157
11 | NCI-H460 |  |  | 1.32 | 1.25 | 0.643 | 0.652 | 0.861 | 0.76 | 0.772 | 1.57 | 1.76 | 0.906 | 1.03 | 0.167 | 0.19 | 0.197 | 0.149 | 0.202
12 | NCI-H520 | 1.35 | 1.4 | 1.16 | 1.03 | 0.928 | 0.76 | 0.971 | 1.03 | 0.883 | 1.37 | 1.08 | 0.79 | 0.795 | 0.183 | 0.217 | 0.206 | 0.237 | 0.161
13 | NCI-H647 | 1.52 | 1.23 | 1.03 | 1.16 | 1.05 | 0.995 | 1.15 | 1.14 | 1.1 | 1.41 | 1.45 | 1.1 | 0.937 | 0.334 | 0.385 | 0.305 | 0.374 | 0.538
14 | NCI-H727 | 0.333 | 0.443 | 0.471 | 0.426 | 0.285 | 0.288 | 0.319 | 0.203 | 0.31 | 1.15 | 1.12 | 1.01 | 0.846 | 0.593 | 0.593 | 0.644 | 0.644 | 0.505
15 | NCI-H838 | 1.39 | 1.33 | 1.21 | 1.18 | 1.02 | 1 | 0.983 | 1.08 | 1.01 | 1.14 | 0.983 | 0.834 | 0.877 | 0.178 | 0.209 | 0.202 | 0.202 | 0.234
16 | NCI-H1355 | 1 | 0.969 | 0.94 | 0.99 |  | 0.666 | 0.713 | 0.885 | 0.67 | 1.27 | 1.17 | 1.08 | 1.13 |  | 0.362 | 0.359 | 0.422 | 0.295
17 | NCI-H1437 | 1.3 | 1.33 | 1.07 | 1.18 | 1.01 | 0.926 | 0.989 | 1.09 | 0.993 | 1.3 | 1.01 | 1.1 | 1.07 | 0.336 | 0.307 | 0.307 | 0.235 | 0.374
18 | NCI-H1651 | 1.24 | 1.2 | 1.02 | 1.04 | 0.99 | 0.765 | 0.901 | 0.991 | 0.927 | 0.976 | 1.01 | 0.907 | 0.862 | 0.529 | 0.5 | 0.533 | 0.489 | 0.51
